# Source: patent US8530493B2, “Indolopyridines as Eg5 kinesin modulators” (4SC AG, priority 2006, dated 2013)
# Test system: RKO p21 uninduced (proliferating) colon adenocarcinoma cells
# Experiment: Alamar Blue cell viability assay, RKO p21 uninduced (proliferating)
# Type: cell-based
# Conditions: Homo sapiens, Table B3, anti-proliferative/cytotoxic activity, 72 hours, read-out: −log EC50 RKO p21 uninduced (proliferating) (converted)
# Method in brief: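 RKO p21 or p27 subclones grown without Ponasterone A, i.e. proliferating, exposed 24 h after seeding to semi-log compound dilutions in DMEM/10% FCS (1% DMSO controls) for 72 h at 37° C. Alamar Blue fluorescence (544/590 nm) read relative to untreated cells; EC50 from dose-response curves, given as −log EC50 (mol/l).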
row,Structure (SMILES),EC50
1,"CCOc1ccc2[nH]c3c(c2c1)C[C@@]1(C)C(=O)N(CCCN2CCCCCC2)C(=O)N1[C@@H]3c1cccc(O)c1 (racemic) [Example 210, (3aSR,10RS)-2-(3-Azepan-1-yl-propyl)-6-ethoxy-10-(3-hydroxy-phenyl)-3a-methyl-3a,4,9,10-tetrahydro-2,9,10a-triaza-cyclopenta[b]fluorene-1,3-dione]",39.8 to 251 nM
2,"CNCCCN1C(=O)N2[C@H](c3cccc(O)c3)c3[nH]c4ccc(Br)cc4c3C[C@@]2(C)C1=O (racemic) [Example 211, (3aSR,10RS)-6-Bromo-10-(3-hydroyx-phenyl)-3a-methyl-2-(3-methylamino-propyl)-3a,4,9,10-tetrahydro-2,9,10a-triaza-cyclopenta[b]fluorene-1,3-dione]",≤ 39.8 nM
3,"CCNCCCN1C(=O)N2[C@H](c3cccc(O)c3)c3[nH]c4ccc(Br)cc4c3C[C@@]2(C)C1=O (racemic) [Example 212, (3aSR,10RS)-6-Bromo-2-(3-ethylamino-propyl)-10-(3-hydroxy-phenyl)-3a-methyl-3a,4,9,10-tetrahydro-2,9,10a-triaza-cyclopenta[b]fluorene-1,3-dione]",≤ 39.8 nM
4,"CC(C)CNCCCN1C(=O)N2[C@H](c3cccc(O)c3)c3[nH]c4ccc(Br)cc4c3C[C@@]2(C)C1=O (racemic) [Example 213, (3aSR,10RS)-6-Bromo-10-(3-hydroxy-phenyl)-2-(3-isobutylamino-propyl)-3a-methyl-3a,4,9,10-tetrahydro-2,9,10a-triaza-cyclopenta[b]fluorene-1,3-dione]",≤ 39.8 nM
5,"COCCNCCCN1C(=O)N2[C@H](c3cccc(O)c3)c3[nH]c4ccc(Br)cc4c3C[C@@]2(C)C1=O (racemic) [Example 214, (3aSR,10RS)-6-Bromo-10-(3-hydroxy-phenyl)-2-[3-(2-methoxy-ethylamino)-propyl]-3a-methyl-3a,4,9,10-tetrahydro-2,9,10a-triaza-cyclopenta[b]fluorene-1,3-dione]",≤ 39.8 nM
6,"C[C@@]12Cc3c([nH]c4ccc(Br)cc34)[C@@H](c3cccc(O)c3)N1C(=O)N(CCCNC1CC1)C2=O (racemic) [Example 215, (3aSR,10RS)-6-Bromo-2-(3-cyclopropylamino-propyl)-10-(3-hydroxy-phenyl)-3a-methyl-3a,4,9,10-tetrahydro-2,9,10a-triaza-cyclopenta[b]fluorene-1,3-dione]",≤ 39.8 nM
7,"CCN(C)CCCN1C(=O)N2[C@H](c3cccc(O)c3)c3[nH]c4ccc(Br)cc4c3C[C@@]2(C)C1=O (racemic) [Example 216, (3aSR,10RS)-6-Bromo-2-[3-(ethyl-methyl-amino)-propyl]-10-(3-hydroxy-phenyl)-3a-methyl-3a,4,9,10-tetrahydro-2,9,10a-triaza-cyclopenta[b]fluorene-1,3-dione]",≤ 39.8 nM
8,"CCN(CCCN1C(=O)N2[C@H](c3cccc(O)c3)c3[nH]c4ccc(Br)cc4c3C[C@@]2(C)C1=O)CCOC (racemic) [Example 217, (3aSR,10RS)-6-Bromo-2-{3-[ethyl-(2-methoxy-ethyl)-amino]-propyl}-10-(3-hydroxy-phenyl)-3a-methyl-3a,4,9,10-tetrahydro-2,9,10a-triaza-cyclopenta[b]fluorene-1,3-dione]",≤ 39.8 nM
9,"CC(C)N(C)CCCN1C(=O)N2[C@H](c3cccc(O)c3)c3[nH]c4ccc(Br)cc4c3C[C@@]2(C)C1=O (racemic) [Example 218, (3aSR,10RS)-6-Bromo-10-(3-hydroxy-phenyl)-2-[3-(isopropyl-methyl-amino)-propyl]-3a-methyl-3a,4,9,10-tetrahydro-2,9,10a-triaza-cyclopenta[b]fluorene-1,3-dione]",≤ 39.8 nM
10,"C[C@@]12Cc3c([nH]c4ccc(Br)cc34)[C@@H](c3cccc(O)c3)N1C(=O)N(CCCN1CCCC1)C2=O (racemic) [Example 219, (3aSR,10RS)-6-Bromo-10-(3-hydroxy-phenyl)-3a-methyl-2-(3-pyrrolidin-1-yl-propyl)-3a,4,9,10-tetrahydro-2,9,10a-triaza-cyclopenta[b]fluorene-1,3-dione]",≤ 39.8 nM
11,"CC(=O)N1CCN(CCCN2C(=O)N3[C@H](c4cccc(O)c4)c4[nH]c5ccc(Br)cc5c4C[C@@]3(C)C2=O)CC1 (racemic) [Example 220, (3aSR,10RS)-2-[3-(4-Acetyl-piperazin-1-yl)-propyl]-6-bromo-10-(3-hydroxy-phenyl)-3a-methyl-3a,4,9,10-tetrahydro-2,9,10a-triaza-cyclopenta[b]fluorene-1,3-dione]",39.8 to 251 nM
12,"CCOc1ccc2[nH]c3c(c2c1)C[C@@]1(C)C(=O)N(CCCN2CCCC2)C(=O)N1[C@@H]3c1cccc(O)c1 (racemic) [Example 221, (3aSR,10RS)-6-Ethoxy-10-(3-hydroxy-phenyl)-3a-methyl-2-(3-pyrrolidin-1-yl-propyl)-3a,4,9,10-tetrahydro-2,9,10a-triaza-cyclopenta[b]fluorene-1,3-dione]",39.8 to 251 nM
13,"CCOc1ccc2[nH]c3c(c2c1)C[C@@]1(C)C(=O)N(CCCN2CC=CC2)C(=O)N1[C@@H]3c1cccc(O)c1 (racemic) [Example 222, (3aSR,10RS)-2-[3-(2,5-Dihydro-pyrrol-1-yl)-propyl]-6-ethoxy-10-(3-hydroxy-phenyl)-3a-methyl-3a,4,9,10-tetrahydro-2,9,10a-triaza-cyclopenta[b]fluorene-1,3-dione]",39.8 to 251 nM
14,"CCOc1ccc2[nH]c3c(c2c1)C[C@@]1(C)C(=O)N(CCCN2CCCCC2)C(=O)N1[C@@H]3c1cccc(O)c1 (racemic) [Example 223, (3aSR,10RS)-6-Ethoxy-10-(3-hydroxy-phenyl)-3a-methyl-2-(3-piperidin-1-yl-propyl)-3a,4,9,10-tetrahydro-2,9,10a-triaza-cyclopenta[b]fluorene-1,3-dione]",39.8 to 251 nM
15,"CCOc1ccc2[nH]c3c(c2c1)C[C@@]1(C)C(=O)N(CCCN2CCC(C)CC2)C(=O)N1[C@@H]3c1cccc(O)c1 (racemic) [Example 224, (3aSR,10RS)-6-Ethoxy-10-(3-hydroxy-phenyl)-3a-methyl-2-[3-(4-methyl-piperidin-1-yl)-propyl]-3a,4,9,10-tetrahydro-2,9,10a-triaza-cyclopenta[b]fluorene-1,3-dione]",39.8 to 251 nM
16,"C#CCNCCCN1C(=O)N2[C@H](c3cccc(O)c3)c3[nH]c4ccc(OCC)cc4c3C[C@@]2(C)C1=O (racemic) [Example 225, (3aSR,10RS)-6-Ethoxy-10-(3-hydroxy-phenyl)-3a-methyl-2-(3-prop-2-ynylamino-propyl)-3a,4,9,10-tetrahydro-2,9,10a-triaza-cyclopenta[b]fluorene-1,3-dione]",39.8 to 251 nM
17,"CCOc1ccc2[nH]c3c(c2c1)C[C@@]1(C)C(=O)N(CCCN(C)C)C(=O)N1[C@@H]3c1cccc(O)c1 (racemic) [Example 226, (3aSR,10RS)-2-(3-Dimethylamino-propyl)-6-ethoxy-10-(3-hydroxy-phenyl)-3a-methyl-3a,4,9,10-tetrahydro-2,9,10a-triaza-cyclopenta[b]fluorene-1,3-dione]",39.8 to 251 nM
18,"CCN(CC)CCCN1C(=O)N2[C@H](c3cccc(O)c3)c3[nH]c4ccc(Br)cc4c3C[C@@]2(C)C1=O (racemic) [Example 228, (3aSR,10RS)-6-Bromo-2-(3-diethylamino-propyl)-10-(3-hydroxy-phenyl)-3a-methyl-3a,4,9,10-tetrahydro-2,9,10a-triaza-cyclopenta[b]fluorene-1,3-dione]",≤ 39.8 nM
